Source: PubChem BioAssay AID1963970 (Molecular Pharmacology Branch, DTP, NCI, 2024)
Each block holds one compound with its values, some of them ahead of it.

Test system: 931267-113-T-J1-PDC multicell spheroid viability
Assay: Anticancer human tumor 931267-113-T-J1-PDC patient-derived colon adenocarcinoma cell line growth inhibition [PI3K]
Settings: for viability, T/C: stronger effect = lower value
Summary of the method: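 Viability of mixed-cell spheroids was determined after exposure to pairwise combinations, one partner being inavolisib, alpelisib, duvelisib or copanlisib. Highest tested concentration matched clinical Cmax where known and 10 microM where not, descending in half-log steps.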

[1] = curve of first compound, second compound 0.0316 µM
[2] = curve of first compound, second compound 0.1 µM
[3] = curve of first compound, second compound 0.316 µM
[4] = curve of first compound, second compound 1 µM
[5] = curve of first compound, second compound 3.16 µM
[6] = curve of first compound, second compound 10 µM
[7] = second compound 0.0316 µM, first compound 0.0316 µM
[8] = second compound 0.0316 µM, first compound 0.1 µM
[9] = second compound 0.0316 µM, first compound 0.316 µM
[10] = second compound 0.0316 µM, first compound 1 µM
[11] = second compound 0.1 µM, first compound 0.0316 µM
[12] = second compound 0.1 µM, first compound 0.1 µM
[13] = second compound 0.1 µM, first compound 0.316 µM
[14] = second compound 0.1 µM, first compound 1 µM
[15] = second compound 0.316 µM, first compound 0.0316 µM
[16] = second compound 0.316 µM, first compound 0.1 µM
[17] = second compound 0.316 µM, first compound 0.316 µM
[18] = second compound 0.316 µM, first compound 1 µM
[19] = second compound 1 µM, first compound 0.0316 µM
[20] = second compound 1 µM, first compound 0.1 µM
[21] = second compound 1 µM, first compound 0.316 µM
[22] = second compound 1 µM, first compound 1 µM
[23] = second compound 3.16 µM, first compound 0.0316 µM
[24] = second compound 3.16 µM, first compound 0.1 µM
[25] = second compound 3.16 µM, first compound 0.316 µM
[26] = second compound 3.16 µM, first compound 1 µM
[27] = second compound 10 µM, first compound 0.0316 µM
[28] = second compound 10 µM, first compound 0.1 µM
[29] = second compound 10 µM, first compound 0.316 µM
[30] = second compound 10 µM, first compound 1 µM
[31] = curve of first compound, second compound 0.00316 µM
[32] = curve of first compound, second compound 0.01 µM
[33] = second compound 0.00316 µM, first compound 0.0316 µM
[34] = second compound 0.00316 µM, first compound 0.1 µM
[35] = second compound 0.00316 µM, first compound 0.316 µM
[36] = second compound 0.00316 µM, first compound 1 µM
[37] = second compound 0.00316 µM, first compound 3.16 µM
[38] = second compound 0.00316 µM, first compound 10 µM
[39] = second compound 0.01 µM, first compound 0.0316 µM
[40] = second compound 0.01 µM, first compound 0.1 µM
[41] = second compound 0.01 µM, first compound 0.316 µM
[42] = second compound 0.01 µM, first compound 1 µM
[43] = second compound 0.01 µM, first compound 3.16 µM
[44] = second compound 0.01 µM, first compound 10 µM
[45] = second compound 0.0316 µM, first compound 3.16 µM
[46] = second compound 0.0316 µM, first compound 10 µM
[47] = second compound 0.1 µM, first compound 3.16 µM
[48] = second compound 0.1 µM, first compound 10 µM
[49] = second compound 0.316 µM, first compound 3.16 µM
[50] = second compound 0.316 µM, first compound 10 µM
[51] = second compound 1 µM, first compound 3.16 µM
[52] = second compound 1 µM, first compound 10 µM
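Further: viability read 7 days after compound addition.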

IC50 [1]: > 1 µM
IC50 [2]: > 1 µM
IC50 [3]: > 1 µM
IC50 [4]: > 1 µM
IC50 [5]: > 1 µM
IC50 [6]: > 1 µM
Structure (SMILES): CCN1CCN(Cc2ccc(Nc3ncc(F)c(-c4cc(F)c5nc(C)n(C(C)C)c5c4)n3)nc2)CC1 + CC(Nc1ncnc2nc[nH]c12)c1cc2cccc(Cl)c2c(=O)n1-c1ccccc1
viability, T/C (second compound 0.0316 µM, first compound 0.00316 µM): 102%
viability, T/C (second compound 0.0316 µM, first compound 0.01 µM): 94.6%
viability, T/C [7]: 108%
viability, T/C [8]: 100%
viability, T/C [9]: 104%
viability, T/C [10]: 90.2%
viability, T/C (second compound 0.1 µM, first compound 0.00316 µM): 101%
viability, T/C (second compound 0.1 µM, first compound 0.01 µM): 110%
viability, T/C [11]: 104%
viability, T/C [12]: 109%
viability, T/C [13]: 100%
viability, T/C [14]: 84.2%
viability, T/C (second compound 0.316 µM, first compound 0.00316 µM): 111%
viability, T/C (second compound 0.316 µM, first compound 0.01 µM): 107%
viability, T/C [15]: 97.7%
viability, T/C [16]: 98.5%
viability, T/C [17]: 109%
viability, T/C [18]: 98.2%
viability, T/C (second compound 1 µM, first compound 0.00316 µM): 103%
viability, T/C (second compound 1 µM, first compound 0.01 µM): 101%
viability, T/C [19]: 105%
viability, T/C [20]: 102%
viability, T/C [21]: 102%
viability, T/C [22]: 86%
viability, T/C (second compound 3.16 µM, first compound 0.00316 µM): 107%
viability, T/C (second compound 3.16 µM, first compound 0.01 µM): 93.4%
viability, T/C [23]: 86.8%
viability, T/C [24]: 95.3%
viability, T/C [25]: 92.8%
viability, T/C [26]: 81.2%
viability, T/C (second compound 10 µM, first compound 0.00316 µM): 92%
viability, T/C (second compound 10 µM, first compound 0.01 µM): 86.7%
viability, T/C [27]: 89.7%
viability, T/C [28]: 80.8%
viability, T/C [29]: 81.9%
viability, T/C [30]: 67.9%

IC50 [31]: > 10 µM
IC50 [32]: > 10 µM
IC50 [1]: > 10 µM
IC50 [2]: > 10 µM
IC50 [3]: < 0.0316 µM
IC50 [4]: < 0.0316 µM
Structure (SMILES): C=CC(=O)N1CCN(c2nc(=O)n(-c3c(C)ccnc3C(C)C)c3nc(-c4c(O)cccc4F)c(F)cc23)C(C)C1 (stereo not drawn) + COc1c(OCCCN2CCOCC2)ccc2c3n(c(=NC(=O)c4cnc(N)nc4)nc12)CCN3
viability, T/C [33]: 107%
viability, T/C [34]: 107%
viability, T/C [35]: 101%
viability, T/C [36]: 95.3%
viability, T/C [37]: 103%
viability, T/C [38]: 101%
viability, T/C [39]: 102%
viability, T/C [40]: 106%
viability, T/C [41]: 91.4%
viability, T/C [42]: 99.4%
viability, T/C [43]: 103%
viability, T/C [44]: 81.1%
viability, T/C [7]: 95.5%
viability, T/C [8]: 98.3%
viability, T/C [9]: 90.4%
viability, T/C [10]: 85.1%
viability, T/C [45]: 86.5%
viability, T/C [46]: 79.1%
viability, T/C [11]: 71.2%
viability, T/C [12]: 68.6%
viability, T/C [13]: 70.5%
viability, T/C [14]: 73.7%
viability, T/C [47]: 71.4%
viability, T/C [48]: 62.5%
viability, T/C [15]: 49.5%
viability, T/C [16]: 44.1%
viability, T/C [17]: 47.6%
viability, T/C [18]: 51.5%
viability, T/C [49]: 52.3%
viability, T/C [50]: 46.6%
viability, T/C [19]: 35.1%
viability, T/C [20]: 29.1%
viability, T/C [21]: 35.1%
viability, T/C [22]: 35.3%
viability, T/C [51]: 36.5%
viability, T/C [52]: 32.5%

Structure (SMILES): Cn1nccc1Nc1nccc(-c2ccn(C(CO)c3ccc(Cl)c(F)c3)c(=O)c2)n1 (stereo not drawn)
viability, T/C (compound 0.0316 µM): 100% [middle of 4 runs]
viability, T/C (compound 0.1 µM): 91.3% [middle of 4 runs]
viability, T/C (compound 0.316 µM): 90.2% [middle of 4 runs]
viability, T/C (compound 1 µM): 74.1% [middle of 4 runs]
viability, T/C (compound 3.16 µM): 67.2% [middle of 4 runs]
viability, T/C (compound 10 µM): 40.4% [middle of 4 runs]

IC50 [31]: > 10 µM
IC50 [32]: > 10 µM
IC50 [1]: > 10 µM
IC50 [2]: > 10 µM
IC50 [3]: > 10 µM
IC50 [4]: > 10 µM
Structure (SMILES): C=CC(=O)N1CCN(c2nc(=O)n(-c3c(C)ccnc3C(C)C)c3nc(-c4c(O)cccc4F)c(F)cc23)C(C)C1 (stereo not drawn) + CC(Nc1ccc2c(c1)OCCn1cc(N3C(=O)OCC3C(F)F)nc1-2)C(N)=O
viability, T/C [33]: 108%
viability, T/C [34]: 106%
viability, T/C [35]: 100%
viability, T/C [36]: 114%
viability, T/C [37]: 115%
viability, T/C [38]: 107%
viability, T/C [39]: 94.8%
viability, T/C [40]: 98%
viability, T/C [41]: 117%
viability, T/C [42]: 118%
viability, T/C [43]: 110%
viability, T/C [44]: 106%
viability, T/C [7]: 122%
viability, T/C [8]: 105%
viability, T/C [9]: 90.4%
viability, T/C [10]: 109%
viability, T/C [45]: 114%
viability, T/C [46]: 106%
viability, T/C [11]: 102%
viability, T/C [12]: 100%
viability, T/C [13]: 86.7%
viability, T/C [14]: 102%
viability, T/C [47]: 98%
viability, T/C [48]: 97%
viability, T/C [15]: 91.9%
viability, T/C [16]: 87.1%
viability, T/C [17]: 99.8%
viability, T/C [18]: 88.8%
viability, T/C [49]: 90.4%
viability, T/C [50]: 72.2%
viability, T/C [19]: 92.9%
viability, T/C [20]: 74%
viability, T/C [21]: 79%
viability, T/C [22]: 80.7%
viability, T/C [51]: 83.8%
viability, T/C [52]: 71.4%

IC50 (compound alone, run of 05/08/2023): > 1 µM
Structure (SMILES): CC(Nc1ccc2c(c1)OCCn1cc(N3C(=O)OCC3C(F)F)nc1-2)C(N)=O (stereo not drawn)
viability, T/C (compound 0.00316 µM): 99.8% [middle of 8 runs]
viability, T/C (compound 0.01 µM): 100% [middle of 8 runs]
viability, T/C (compound 0.0316 µM): 96.4% [middle of 8 runs]
viability, T/C (compound 0.1 µM): 83.7% [middle of 8 runs]
viability, T/C (compound 0.316 µM): 86% [middle of 8 runs]
viability, T/C (compound 1 µM): 83.1% [middle of 8 runs]

IC50 [1]: 0.631 µM
IC50 [2]: 0.573 µM
IC50 [3]: 0.664 µM
IC50 [4]: 0.677 µM
IC50 [5]: 0.378 µM
IC50 [6]: 0.222 µM
Structure (SMILES): C#Cc1c(F)ccc2cc(O)cc(-c3ncc4c(N5CC6CCC(C5)N6)nc(OCC56CCCN5CC(F)C6)nc4c3F)c12 (stereo not drawn) + CC(Nc1ncnc2nc[nH]c12)c1cc2cccc(Cl)c2c(=O)n1-c1ccccc1
viability, T/C [7]: 96.4%
viability, T/C [8]: 74%
viability, T/C [9]: 57.6%
viability, T/C [10]: 45.7%
viability, T/C [45]: 32.6%
viability, T/C [46]: 22.5%
viability, T/C [11]: 105%
viability, T/C [12]: 78.1%
viability, T/C [13]: 56.6%
viability, T/C [14]: 45.4%
viability, T/C [47]: 29.5%
viability, T/C [48]: 24.5%
viability, T/C [15]: 90.9%
viability, T/C [16]: 72.9%
viability, T/C [17]: 61.4%
viability, T/C [18]: 43.4%
viability, T/C [49]: 33.6%
viability, T/C [50]: 23.2%
viability, T/C [19]: 89.1%
viability, T/C [20]: 78.6%
viability, T/C [21]: 57.9%
viability, T/C [22]: 42.1%
viability, T/C [51]: 37.3%
viability, T/C [52]: 21.2%
viability, T/C [23]: 87.3%
viability, T/C [24]: 70.3%
viability, T/C [25]: 52.1%
viability, T/C [26]: 36.1%
viability, T/C (second compound 3.16 µM, first compound 3.16 µM): 28.4%
viability, T/C (second compound 3.16 µM, first compound 10 µM): 17.6%
viability, T/C [27]: 91.1%
viability, T/C [28]: 63.1%
viability, T/C [29]: 45%
viability, T/C [30]: 27.1%
viability, T/C (second compound 10 µM, first compound 3.16 µM): 22.7%
viability, T/C (second compound 10 µM, first compound 10 µM): 12%

IC50 (compound alone, run of 05/09/2023): > 10 µM
Structure (SMILES): CC(Nc1ncnc2nc[nH]c12)c1cc2cccc(Cl)c2c(=O)n1-c1ccccc1 (stereo not drawn)
viability, T/C (compound 0.0316 µM): 102% [middle of 8 runs]
viability, T/C (compound 0.1 µM): 99.7% [middle of 8 runs]
viability, T/C (compound 0.316 µM): 102% [middle of 8 runs]
viability, T/C (compound 1 µM): 100% [middle of 8 runs]
viability, T/C (compound 3.16 µM): 99.7% [middle of 8 runs]
viability, T/C (compound 10 µM): 96.7% [middle of 8 runs]
